Results taken from patent US5874464A, “Conformationally constrained diacylglycerol analogues” (The United States of America as represented by the …, priority 1995, dated 1999).
Like-named read-outs stand apart in the source and are kept apart here.

Experiments:
PK-C α [1] = molecular target: T1, PK-C α (Homo sapiens, UniProt P17252); test: displacement of bound [3H-20]-phorbol-12,13-dibutyrate (PDBU) from single recombinant isozyme PK-C α; type: binding; settings: for Ki: PK-C α
T1 construct: made in house
Protocol: This recombinant PK-C α was expressed in baculovirus and isolated as described by Kazanietz et al. (Mol. Pharmacol. 44: 298-307 (1993)).
The affinity of these ligands for PK-C was assessed in terms of their ability to displace bound [^3 H-20]-phorbol-12,13-dibutyrate (PDBU) from a purified product containing the single isozyme PK-C α.

[2] = test system: mouse skin tumor promotion; settings: in vivo; cited from earlier work
[3] = stability to racemization / acyl migration; type: physicochemical; settings: silica or neutral alumina
PK-C α [4] = molecular target: T1, PK-C α; test: stimulation of phosphorylation of the α-pseudosubstrate peptide (activation of PK-C α); type: biochemical; settings: read-out: ED50, stimulation of phosphorylation of the α-pseudosubstrate peptide
[5] = test system: binding of epidermal growth factor; test: inhibition of binding of epidermal growth factor in intact cells; type: cell-based; settings: read-out: ED50, inhibition of binding of epidermal growth factor
Protocol: (§1) The biological activity of compound 3.8 was evaluated further. […] Finally, the ability of compound 3.8 to down-regulate PK-C α and PK-C δ in primary mouse keratinocytes after 24 hours was examined.

CD-1 mouse skin = test: induction of acute edema or hyperplasia in CD-1 mouse skin; type: in vivo; settings: 10-100 μg
PK-C α [6] = molecular target: T2, PK-C α (Mus musculus, UniProt P20444); test: down-regulation of PK-C α in primary mouse keratinocytes; type: cell-based; settings: even after 24 h
T2 construct: in primary mouse keratinocytes; endogenous in cells; host or cells: primary mouse keratinocytes
Protocol: as §1

PK-Cε = test: down-regulation of PK-Cε in primary mouse keratinocytes; type: cell-based; settings: after 24 hours
PK-C.eta. = test: down-regulation of PK-C.eta. in primary mouse keratinocytes; type: cell-based; settings: after 24 hours
melanoma = settings: in vivo; cited from earlier work
[7] = Table II, racemic and chiral compounds, read-out: Apparent Ki for ligands as inhibitors of PDBU binding to PK-C
[8] = read-out: Ki, displacement of bound PDBU
[9] = Table I, read-out: Apparent Ki for ligands as inhibitors of PDBU binding to PK-C
[10] = Table IV, read-out: Apparent Ki for chiral ligands having an α-alkylidene chain as inhibitors of PDBU binding to PK-C

**Q.** With `CCCCCCCCCCCCCC(=O)OCC1(CO)CCC(=O)O1` (stereo not shown) as the molecule, how does the Ki (PK-C α [1]; [7]) read?
**A.** Its Ki is 138 ± 24 nM.

**Q.** For `CCCCCCCCCCCCCC(=O)OCC1(CO)CCC(=O)O1` (racemic) [Compound 3e, 5-[(tetradecanoyloxy)methyl]-5-hydroxymethyl-tetrahydro-2-furanone], which Ki (PK-C α [1]; [8]) is on record?
**A.** The Ki was 138 nM.

**Q.** Which “inhibition of mouse skin tumor promotion” value [2] does the source give for `CC(=O)OC12CC(C)C3(O)C(C=C(CO)CC4(O)C(=O)C(C)=CC43)C1C2(C)C` (stereo not shown) [12-deoxyphorbol-13-acetate] here?
**A.** Its value is 97%.

**Q.** For `CCCCCCCCCCCCCC(=O)OC[C@]1(CO)CCC(=O)O1` [Compound 2.2, (R)-5-[(tetradecanoyloxy)methyl]-5-(hydroxymethyl)-tetrahydro-2-furanone], which Ki (PK-C α [1]; [8]) is on record?
**A.** The Ki was 96 nM.

**Q.** What about the “racemization on exposure to chromatographic conditions” value [3] of the same molecule?
**A.** Its value is “rapid racemization”.

**Q.** Which “binding affinity compared with the corresponding α-alkylidenes 3.9 and 3.10” value (PK-C α [1]; Table IV) does the source give for `CCCCCCCC/C=C\CCCCCCC/C=C1\C[C@](/C=C/C(=O)OC)(CO)OC1=O` [Compound 3.7, (S)-5-Hydroxymethyl-5-[2-(methoxycarbonyl)ethenyl]-3-{(E)-[(Z)-9-octadecenoylidene]}tetrahydro-2-furanone] here?
**A.** The value was “equivalent”.

**Q.** For `CCCCCCCC/C=C\CCCCCCC/C=C1/C[C@](/C=C/C(=O)OC)(CO)OC1=O` [Compound 3.8, (S)-5-Hydroxymethyl-5-[2-(methoxycarbonyl)ethenyl]-3-{(Z)-[(Z)-9-octadecenoylidene]}tetrahydro-2-furanone], which “binding affinity compared with the corresponding α-alkylidenes 3.9 and 3.10” value (PK-C α [1]; Table IV) is on record?
**A.** Its value is “equivalent”.

**Q.** What about the EC50 (PK-C α [4]) of the same molecule?
**A.** Its EC50 is 163 ± 16.7 nM.

**Q.** And the IC50 [5]?
**A.** Its IC50 is 1000 nM.

**Q.** What about the “induction of acute edema” value (CD-1 mouse skin; 6 h) of the same molecule?
**A.** Its value is “did not induce acute edema”.

**Q.** What about the induction of hyperplasia (CD-1 mouse skin; 72 h) of the same molecule?
**A.** The induction of hyperplasia was “did not induce acute edema (10-100 μg, 6 h) or hyperplasia”.

**Q.** And the loss in activity (PK-C α [6])?
**A.** The loss in activity was “No loss in activity was observed”.

**Q.** And the “down-regulation of PK-Cε” value (PK-Cε)?
**A.** The value was “did not down-regulate”.

**Q.** What about the “down-regulation of PK-C.eta.” value (PK-C.eta.) of the same molecule?
**A.** Its value is “did not down-regulate”.

**Q.** Which Ki (PK-C α [1]; [9]) does the source give for `CCCCCCCC/C=C\CCCCCCCC(=O)OCC1(CO)CCC(=O)O1` (stereo not shown) [Compound 3f, 5-{[(Z)-9-octadecenoyloxy]methyl}-5-hydroxymethyl-tetrahydro-2-furanone] here?
**A.** Its Ki is 96 ± 7.45 nM.

**Q.** For `CCCCCCCCCCCCCC(=O)OCC1(CO)COC(=O)C1` (stereo not shown) [Compound 9c, 4-Hydroxymethyl-4-(tetradecanoyloxy)methyl-4-vinyltetrahydro-2-furanone], which Ki (PK-C α [1]; [9]) is on record?
**A.** The Ki was 9810 nM.

**Q.** For `CCCCCCCCCCCCCCC1CC(CO)(COC(C)=O)OC1=O` (stereo not shown) [Compound 12, 5-(acetyloxymethyl)-5-(hydroxymethyl)-3-(tetradecanyl)-tetrahydro-2-furanone], which Ki (PK-C α [1]; [9]) is on record?
**A.** Its Ki is 75 ± 2.54 nM.

**Q.** For `CCCCCCCCCCCCC/C=C1\C(=O)OCC1(CO)COC(C)=O` (stereo not shown) [Compound 14c, (Z)-4-[(acetoxy)methyl]-4-hydroxymethyl-3-(tetradecanylidene)-tetrahydro-2-furanone], which Ki (PK-C α [1]; [9]) is on record?
**A.** The Ki was 6510 nM.

**Q.** For `CCCC=CC=CC(=O)OC1C(=CC(=O)OC)CC2CC(C(C)O)OC(=O)CC(O)CC3CC(OC(C)=O)C(C)(C)C(O)(CC4CC(=CC(=O)OC)CC(C=CC(C)(C)C1(O)O2)O4)O3` (stereo not shown) [bryostatin-1], which “results in clinical trials for treatment of melanoma” value (melanoma) is on record?
**A.** The value was “promising results”.

**Q.** Which Ki (PK-C α [1]; [7]) does the source give for `CCCCCCCCCCCCCC(=O)OC[C@]1(CO)CCC(=O)O1` [drawing 16] here?
**A.** The Ki was 96 ± 2.17 nM.

**Q.** For `CCCCCCCC/C=C\CCCCCCC/C=C1\C[C@](/C=C/C(=O)OC)(CO)OC1=O` [drawing 35], which Ki (PK-C α [1]; [10]) is on record?
**A.** Its Ki is 20.1 ± 2.9 nM.

**Q.** With `CCCCCCCC/C=C\CCCCCCC/C=C1/C[C@](/C=C/C(=O)OC)(CO)OC1=O` [drawing 36] as the molecule, how does the Ki (PK-C α [1]; [10]) read?
**A.** The Ki was 11.3 ± 0.72 nM.
